Source: patent US20230117034A1, “PYRAZOLOTRIAZINES” (Bayer Aktiengesellschaft, priority 2019, published 2023)

How the values were obtained:
[1] = molecular target: T1, CDK12 (nuclear staining in CAL-120 cells) (Homo sapiens, UniProt Q9NYV4); assay: CDK12 nuclear protein level: immunofluorescence/high content analysis (CAL-120); format: cell-based; details: for DC50: CAL-120 cells, 24 h, immunofluorescence, 50% reduction of nuclear CDK12 staining intensity, median, read-out: CDK12 degradation IF, DC50- [mol/l] (median); for (IC50 CDK12 high ATP) to (Degradation DC50 CDK12) ratio: ratio of IC50 CDK12 high ATP kinase assay to DC50 CDK12 degradation (IF, CAL-120)
T1 construct: endogenous in cells; host or cells: CAL-120 human breast cancer cells (DSMZ ACC 459)
Outline: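 CAL-120 cells were treated with compound for 24 h at 37 °C, fixed with PFA and immunostained for CDK12. Nuclear CDK12 intensity was quantified by automated image analysis and normalized to DMSO and control. DC50 is the concentration giving 50% reduction of nuclear staining.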

[2] = molecular target: T2, CDK12 protein level in CAL-120 breast cancer cells (Homo sapiens, UniProt Q9NYV4); assay: CDK12 protein level: Protein Simple (CDK12, CAL-120); format: cell-based; details: CAL-120 cells, 18 h with compound, CDK12/HSP90 peak area ratio vs vehicle, median, read-out: CDK12 protein level in CAL-120 breast ca cells, DC50-[mol/l] (median)
T2 construct: endogenous in cells; host or cells: CAL-120 human breast cancer cells (DSMZ ACC 459)
Experimental: CAL-120 human breast cancer cells (DSMZ ACC 459) were seeded at 300,000 cells/well in 6-well plates containing 2 mL of growth medium (DMEM, 10% FCS, glutamine) and incubated for 24 h at 37° C. in an humidified incubator. Test compounds were added at various concentrations, control wells received solvent (DMSO), and the plates were incubated for another 18 h at 37° C. Cells were washed 2 times with PBS and lysed in 75 microL lysis buffer (MSD-Puffer (MSD, #R60TX-2), +1% 505S+PhosSTOP (Roche #04906837001)+complete mini (Roche #04693159001)) by scraping. The lysates were pushed 2 times through Qiashedders followed by centrifugation at 14,000 rpm for 30-50 sec. The supernatant was stored at −20° C. Proteins were separated by applying 0.4 microgramms of protein lysate to Protein Simple 66-440 kDa (Protein Simple #SM-S002) size assay columns on a PEGGY SUE or SALLY SUE equipment according to the supplier's manual. CDK12 and HSP90 (loading control) were detected using anti-human CDK12 antibody (Cell Signaling Technologies (CST) #11793) at 1:25 dilution and anti-human HSP90 antibody (CST #4877) at 1:5,000 dilution. CDK12 and HSP90 peak areas were determined using Protein Simple Compass software. Ratio of CDK12/HSP90 peak areas were calculated for each sample, and […] values (degrading concentration to achieve 50% reduction relative to vehicle treated control) were determined by means of a 4 parameter fit.

CDK12/CycK = CDK12/CycK (Homo sapiens, UniProt Q9NYV4); assay: CDK12/CycK high ATP kinase assay (TR-FRET, 2 mM ATP); format: biochemical; details: 2 mM ATP (high ATP); median; read-out: CDK12/CyclinK, 2 mM ATP (high ATP), IC50-[mol/l] (median)
Outline: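 His-tagged human CDK12/CycK (~0.75 nM) pre-incubated 15 min with compound, then 60 min at 22 °C with 2 mM ATP and 1 µM biotinylated peptide (HEPES pH 7.5, 20 mM MgCl2). EDTA stop; phospho-Ser62 antibody/Eu anti-rabbit and streptavidin-XL665 TR-FRET, 665/620 nm ratio normalised to give IC50.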

Sequence of CDK12/CycK (Q9NYV4 with tags, fused parts or gaps): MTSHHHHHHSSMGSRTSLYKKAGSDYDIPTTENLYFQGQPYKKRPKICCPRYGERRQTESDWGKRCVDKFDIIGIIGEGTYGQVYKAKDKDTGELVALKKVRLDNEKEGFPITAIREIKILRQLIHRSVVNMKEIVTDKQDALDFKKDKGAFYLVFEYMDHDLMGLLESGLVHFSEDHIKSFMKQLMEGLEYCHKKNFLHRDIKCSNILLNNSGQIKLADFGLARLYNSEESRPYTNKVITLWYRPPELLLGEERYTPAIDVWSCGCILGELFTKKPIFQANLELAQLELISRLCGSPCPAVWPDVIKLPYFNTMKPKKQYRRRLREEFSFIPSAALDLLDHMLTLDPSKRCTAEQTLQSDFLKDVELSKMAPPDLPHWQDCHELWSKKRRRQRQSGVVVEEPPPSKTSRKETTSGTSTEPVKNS
Sequence of CDK12/CycK (O75909 1-300 partner limits assumed): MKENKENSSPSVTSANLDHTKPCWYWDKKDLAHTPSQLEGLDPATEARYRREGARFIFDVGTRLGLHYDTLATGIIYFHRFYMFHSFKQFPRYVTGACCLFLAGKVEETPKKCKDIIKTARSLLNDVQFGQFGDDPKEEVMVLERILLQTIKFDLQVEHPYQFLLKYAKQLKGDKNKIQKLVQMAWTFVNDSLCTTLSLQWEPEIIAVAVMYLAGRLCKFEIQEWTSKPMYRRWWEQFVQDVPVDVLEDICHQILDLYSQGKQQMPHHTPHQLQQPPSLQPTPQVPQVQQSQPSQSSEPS
T2 sequence (Q9NYV4 whole entry): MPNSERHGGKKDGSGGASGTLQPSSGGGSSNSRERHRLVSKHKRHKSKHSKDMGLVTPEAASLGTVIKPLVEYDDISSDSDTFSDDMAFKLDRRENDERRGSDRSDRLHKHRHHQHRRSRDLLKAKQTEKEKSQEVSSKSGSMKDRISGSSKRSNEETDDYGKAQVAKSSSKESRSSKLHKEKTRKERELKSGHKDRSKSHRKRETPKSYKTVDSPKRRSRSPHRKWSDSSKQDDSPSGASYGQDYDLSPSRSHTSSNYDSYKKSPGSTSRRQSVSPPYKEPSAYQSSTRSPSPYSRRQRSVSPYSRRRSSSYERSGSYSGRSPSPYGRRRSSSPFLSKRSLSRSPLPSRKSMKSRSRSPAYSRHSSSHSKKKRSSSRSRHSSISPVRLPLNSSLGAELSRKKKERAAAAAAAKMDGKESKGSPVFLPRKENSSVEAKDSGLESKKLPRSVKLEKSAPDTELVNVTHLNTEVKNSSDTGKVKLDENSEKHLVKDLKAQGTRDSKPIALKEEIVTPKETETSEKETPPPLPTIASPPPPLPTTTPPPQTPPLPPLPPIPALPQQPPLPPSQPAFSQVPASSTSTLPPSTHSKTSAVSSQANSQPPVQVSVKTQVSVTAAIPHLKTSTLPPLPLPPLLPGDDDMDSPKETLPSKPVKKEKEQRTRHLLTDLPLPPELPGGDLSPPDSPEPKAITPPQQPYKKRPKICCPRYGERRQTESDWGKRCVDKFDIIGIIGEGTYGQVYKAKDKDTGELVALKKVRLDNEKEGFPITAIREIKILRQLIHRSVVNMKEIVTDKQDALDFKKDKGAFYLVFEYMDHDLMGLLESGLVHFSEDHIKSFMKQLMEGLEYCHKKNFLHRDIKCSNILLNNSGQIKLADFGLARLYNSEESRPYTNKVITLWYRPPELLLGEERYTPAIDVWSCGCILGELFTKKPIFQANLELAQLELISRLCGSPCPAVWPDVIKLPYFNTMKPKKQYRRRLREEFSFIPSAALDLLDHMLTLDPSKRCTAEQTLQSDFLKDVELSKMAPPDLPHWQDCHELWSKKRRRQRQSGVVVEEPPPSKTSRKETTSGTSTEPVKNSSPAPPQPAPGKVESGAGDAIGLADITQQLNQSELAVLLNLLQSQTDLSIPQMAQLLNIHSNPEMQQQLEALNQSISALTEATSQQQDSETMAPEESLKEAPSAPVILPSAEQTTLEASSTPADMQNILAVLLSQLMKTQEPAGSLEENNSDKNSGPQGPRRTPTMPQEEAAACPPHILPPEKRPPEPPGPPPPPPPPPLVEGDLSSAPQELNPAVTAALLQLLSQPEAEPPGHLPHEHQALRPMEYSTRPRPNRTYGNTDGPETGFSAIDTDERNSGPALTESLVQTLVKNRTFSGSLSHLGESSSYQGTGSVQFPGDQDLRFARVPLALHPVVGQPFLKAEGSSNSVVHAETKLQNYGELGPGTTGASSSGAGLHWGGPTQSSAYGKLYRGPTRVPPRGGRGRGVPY
T2 sequence (O75909 whole entry partner): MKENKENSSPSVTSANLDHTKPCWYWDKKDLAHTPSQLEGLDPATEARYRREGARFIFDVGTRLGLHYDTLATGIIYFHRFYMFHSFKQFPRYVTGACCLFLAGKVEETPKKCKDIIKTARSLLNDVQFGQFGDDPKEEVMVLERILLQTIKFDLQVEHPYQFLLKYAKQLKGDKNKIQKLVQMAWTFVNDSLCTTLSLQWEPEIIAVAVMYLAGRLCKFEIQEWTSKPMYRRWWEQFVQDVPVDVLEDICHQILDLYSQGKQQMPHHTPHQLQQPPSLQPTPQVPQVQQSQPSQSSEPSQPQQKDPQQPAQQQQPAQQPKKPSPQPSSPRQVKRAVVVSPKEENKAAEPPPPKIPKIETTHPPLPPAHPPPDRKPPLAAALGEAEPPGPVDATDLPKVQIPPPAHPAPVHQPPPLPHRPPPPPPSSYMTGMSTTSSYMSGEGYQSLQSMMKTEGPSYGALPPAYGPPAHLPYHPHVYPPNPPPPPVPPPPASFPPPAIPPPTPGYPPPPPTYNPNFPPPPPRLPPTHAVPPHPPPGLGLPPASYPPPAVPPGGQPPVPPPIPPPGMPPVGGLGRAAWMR
T1 sequence (Q9NYV4 whole entry): as the sequence (Q9NYV4 whole entry) above
T1 sequence (O75909 whole entry partner): as the sequence (O75909 whole entry partner) above

Q: `Fc1ccc2[nH]c(CNc3nc(N4CCOCC4)nc4c(Br)cnn34)nc2c1F` [Example 25, 8-bromo-N-[(4,5-difluoro-1H-benzimidazol-2-yl)methyl]-2-(morpholin-4-yl)pyrazolo[1,5-a][1,3,5]triazin-4-amine] was tested. Which DC50 [1] did it give?
A: 0.674 nM

Q: And the “(IC50 CDK12 high ATP) to (Degradation DC50 CDK12) ratio” value [1]?
A: 1084

Q: What about the DC50 [2] of the same compound?
A: < 1 nM

Q: And the IC50 (CDK12/CycK)?
A: 0.731 µM

Q: Which results are given for `Brc1cnn2c(NCc3nc4c([nH]3)CCCC4)nc(N3CCOCC3)nc12` [Example 21, 8-bromo-2-(morpholin-4-yl)-N-[(4,5,6,7-tetrahydro-1H-benzimidazol-2-yl)methyl]pyrazolo[1,5-a][1,3,5]triazin-4-amine]?
A: DC50 [1]: 186 nM; (IC50 CDK12 high ATP) to (Degradation DC50 CDK12) ratio [1]: 52; DC50 [2]: > 100 nM; IC50 (CDK12/CycK): 9.64 µM

Q: `Cc1ccnc2[nH]c(CNc3nc(N4CCOCC4)nc4c(Br)cnn34)nc12` [Example 20, 8-bromo-N-[(7-methyl-3H-imidazo[4,5-b]pyridin-2-yl)methyl]-2-(morpholin-4-yl)pyrazolo[1,5-a][1,3,5]triazin-4-amine] was tested. Which DC50 [1] did it give?
A: 2.57 nM

Q: What about the “(IC50 CDK12 high ATP) to (Degradation DC50 CDK12) ratio” value [1] of the same compound?
A: 681

Q: What about the DC50 [2] of the same compound?
A: 2.6 nM

Q: And the IC50 (CDK12/CycK)?
A: 1.75 µM

Q: Which DC50 [1] does the source give for `Brc1cnn2c(NCc3nc4ccncc4[nH]3)nc(N3CCOCC3)nc12` [Example 22, 8-bromo-N-[(3H-imidazo[4,5-c]pyridin-2-yl)methyl]-2-(morpholin-4-yl)pyrazolo[1,5-a][1,3,5]triazin-4-amine] here?
A: 99 nM

Q: And the “(IC50 CDK12 high ATP) to (Degradation DC50 CDK12) ratio” value [1]?
A: 40

Q: What about the DC50 [2] of the same compound?
A: 118 nM

Q: What about the IC50 (CDK12/CycK) of the same compound?
A: 4 µM

Q: How did the DC50 [1] turn out when `Brc1cnn2c(NCc3ncc(-c4ccccc4)[nH]3)nc(N3CCOCC3)nc12` [Example 23, 8-bromo-2-(morpholin-4-yl)-N-[(5-phenyl-1H-imidazol-2-yl)methyl]pyrazolo[1,5-a][1,3,5]triazin-4-amine] was run?
A: 3.45 nM

Q: What about the “(IC50 CDK12 high ATP) to (Degradation DC50 CDK12) ratio” value [1] of the same compound?
A: 452

Q: And the DC50 [2]?
A: < 1 nM

Q: What about the IC50 (CDK12/CycK) of the same compound?
A: 1.56 µM

Q: `CC1CN(C)CCN1c1nc(NCc2nc3ccccc3[nH]2)n2ncc(Br)c2n1` (single isomer, unassigned; enantiomer 1) [Example 260, N-(1H-benzimidazol-2-ylmethyl)-8-bromo-2-[(2R or S)-2,4-dimethylpiperazin-1-yl]pyrazolo[1,5-a][1,3,5]triazin-4-amine (Enantiomer 1)] was tested. Which DC50 [1] did it give?
A: 1.78 nM

Q: And the “(IC50 CDK12 high ATP) to (Degradation DC50 CDK12) ratio” value [1]?
A: 6819

Q: And the DC50 [2]?
A: < 1 nM

Q: What about the IC50 (CDK12/CycK) of the same compound?
A: 12.2 µM

Q: What does the source list for `c1ccc2[nH]c(CNc3nc(N4CCNCC4)nc4c(C5CC5)cnn34)nc2c1` [Example 247, N-[(1H-benzimidazol-2-yl)methyl]-8-cyclopropyl-2-(piperazin-1-yl)pyrazolo[1,5-a][1,3,5]triazin-4-amine]?
A: DC50 [1]: 1.38 nM; (IC50 CDK12 high ATP) to (Degradation DC50 CDK12) ratio [1]: 10678; IC50 (CDK12/CycK): 14.7 µM

Q: Which DC50 [1] does the source give for `N[C@@H]1CCN(c2nc(NCc3nc4ccccc4[nH]3)n3ncc(Br)c3n2)C1` [Example 250, 2-[(3R)-3-aminopyrrolidin-1-yl]-N-[(1H-benzimidazol-2-yl)methyl]-8-bromopyrazolo[1,5-a][1,3,5]triazin-4-amine] here?
A: 3.16 nM

Q: And the “(IC50 CDK12 high ATP) to (Degradation DC50 CDK12) ratio” value [1]?
A: 3560

Q: What about the IC50 (CDK12/CycK) of the same compound?
A: 11.3 µM

Q: Which results are given for `FC(F)(F)Cc1cnn2c(NCc3nc4ccccc4[nH]3)nc(N3CCOCC3)nc12.O=CO` [Example 265, formic acid-N-[(1H-benzimidazol-2-yl)methyl]-2-(morpholin-4-yl)-8-(2,2,2-trifluoroethyl)pyrazolo[1,5-a][1,3,5]triazin-4-amine (1/1)]?
A: DC50 [1]: 7.23 nM; (IC50 CDK12 high ATP) to (Degradation DC50 CDK12) ratio [1]: >2310; IC50 (CDK12/CycK): > 16.7 µM

Q: With `Brc1cnn2c(NCc3nnc(-c4ccccc4)[nH]3)nc(N3CCOCC3)nc12` [Example 24, 8-bromo-2-(morpholin-4-yl)-N-[(5-phenyl-4H-1,2,4-triazol-3-yl)methyl]pyrazolo[1,5-a][1,3,5]triazin-4-amine] as the compound, how does the DC50 [1] read?
A: 7.78 nM

Q: And the “(IC50 CDK12 high ATP) to (Degradation DC50 CDK12) ratio” value [1]?
A: 564

Q: What about the DC50 [2] of the same compound?
A: 9.33 nM

Q: And the IC50 (CDK12/CycK)?
A: 4.39 µM

Q: How did the DC50 [1] turn out when `c1ccc2[nH]c(CNc3nc(N4CCOCC4)nc4c(C5CCC5)cnn34)nc2c1` [Example 263, N-[(1H-benzimidazol-2-yl)methyl]-8-cyclobutyl-2-(morpholin-4-yl)pyrazolo[1,5-a][1,3,5]triazin-4-amine] was run?
A: 23.4 nM

Q: What about the “(IC50 CDK12 high ATP) to (Degradation DC50 CDK12) ratio” value [1] of the same compound?
A: 294

Q: What about the IC50 (CDK12/CycK) of the same compound?
A: 6.89 µM

Q: `Fc1cccc2[nH]c(CNc3nc(N4CCOCC4)nc4c(C(F)(F)F)cnn34)nc12` [Example 274, N-[(4-fluoro-1H-benzimidazol-2-yl)methyl]-2-(morpholin-4-yl)-8-(trifluoromethyl)pyrazolo[1,5-a][1,3,5]triazin-4-amine] was tested. Which DC50 [1] did it give?
A: 0.881 nM

Q: And the “(IC50 CDK12 high ATP) to (Degradation DC50 CDK12) ratio” value [1]?
A: 64

Q: And the IC50 (CDK12/CycK)?
A: 0.0395 µM

Q: What does the source list for `Brc1cnn2c(NCc3nc4ccccc4[nH]3)nc(N3C[C@H]4CNC[C@H]4C3)nc12` [Example 283, N-[(1H-benzimidazol-2-yl)methyl]-8-bromo-2-[(3aR,6aS)-hexahydropyrrolo[3,4-c]pyrrol-2(1H)-yl]pyrazolo[1,5-a][1,3,5]triazin-4-amine]?
A: DC50 [1]: 6.97 nM; (IC50 CDK12 high ATP) to (Degradation DC50 CDK12) ratio [1]: 2630; IC50 (CDK12/CycK): 18.3 µM

Q: With `Brc1cnn2c(NCc3nc4ccccc4[nH]3)nc(N3C[C@@H]4C[C@H]3CN4)nc12` [Example 270, N-[(1H-benzimidazol-2-yl)methyl]-8-bromo-2-[(1S,4S)-2,5-diazabicyclo[2.2.1]heptan-2-yl]pyrazolo[1,5-a][1,3,5]triazin-4-amine] as the compound, how does the DC50 [1] read?
A: 1.71 nM

Q: What about the “(IC50 CDK12 high ATP) to (Degradation DC50 CDK12) ratio” value [1] of the same compound?
A: 8023

Q: What about the IC50 (CDK12/CycK) of the same compound?
A: 13.7 µM
